Source: US6967200B2, “Remedies for cirrhosis” (Shionogi & Co., Ltd., priority 2000, dated 2005)

Target: T1, Human type-X sPLA2 (Homo sapiens, UniProt O15496)
T1 construct: made in house; host or cells: CHO cells stably transfected with a pSVL SV40 late promoter expression vector; unpurified culture supernatant used as the enzyme source
T1 sequence (O15496 43-165): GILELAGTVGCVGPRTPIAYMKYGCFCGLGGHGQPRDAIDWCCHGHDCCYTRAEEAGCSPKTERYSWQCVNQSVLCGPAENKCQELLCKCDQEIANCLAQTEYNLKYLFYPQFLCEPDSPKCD
Assay: type-X sPLA2 inhibition test (chromogenic assay, diheptanoylthio PC substrate)
Assay type: biochemical
Conditions: diheptanoylthio PC 1 mM, 30 min at 40° C., pH 7.5, absorbance at 405 nm
Source text: cDNA sequence encoding human type-X sPLA2 (Cupillard et al., J. Biol. Chem, 1997, 272, 15745-15752) was inserted into the downstream region of the promoter of pSVL SV40 Late Promoter Expression Vector (Amersham Pharmacia Biotech Inc.) that is an expression vector for mammalian cells. The obtained expression vector was transfected into the host CHO cells with a LipofectAMINE reagent (Gibco BRL Inc.) according to the manufacture's instruction to obtain the CHO cells stably expressing human type-X sPLA2.
In order to identify and evaluate an inhibitor of type-X sPLA2, the following chromogenic assay is utilized. This assay has been applied for high volume screening using a 96-well microtiterplate. A general explanation for this assay is described in “Analysis of Human Synovial Fluid Phospholipase A2 on Short Chain Phosphatidylcholine-Mixed Micelles: Development of a Spectrophotometric Assay Suitable for a Micortiterplate Reader” (Analytical Biochemistry, 204, pp 190-197, 1992 by Laure. J. Reynolds. Lori L. Hughes and Edward A. Dennis.
Human type-X sPLA2 was incubated (30 min at 40° C. (15 μl/well)) with diheptanoylthio PC (1 mM) in the presence of Triton X-100 (0.3 mM) and 5,5′-dithiobis(2-nitrobenzoic acid) (125 μM) in Tris-HCl buffer (25 mM, pH 7.5) containing CaCl2 (10 mM), KCl (100 mM), and bovine serum albumin (1.0 mg/mL). […]

Structure (SMILES): NC(=O)C1=CCCc2c1c1c(OCC(=O)O)nccn1c2Cc1ccccc1 [Compound 7]
- IC50: 5 nM
